Assay results published in patent US11618746B2, “Inhibitors of APOL1 and methods of using same” (Vertex Pharmaceuticals Incorporated, priority 2018, dated 2023).

biological target: T1, APOL1 G1 Protein (Homo sapiens, UniProt O14791, I384M/S342G); assay: Trypanosoma brucei brucei lysis assay using APOL1 recombinant protein (AlamarBlue viability readout); format: cell-based; conditions: Trypanosoma brucei brucei (Lister 427 VSG 221 bloodstream form) lysis by 0.05 μg/mL recombinant APOL1 G1, 16 hrs
T1 sequence (O14791 28-398 S342G/I384M): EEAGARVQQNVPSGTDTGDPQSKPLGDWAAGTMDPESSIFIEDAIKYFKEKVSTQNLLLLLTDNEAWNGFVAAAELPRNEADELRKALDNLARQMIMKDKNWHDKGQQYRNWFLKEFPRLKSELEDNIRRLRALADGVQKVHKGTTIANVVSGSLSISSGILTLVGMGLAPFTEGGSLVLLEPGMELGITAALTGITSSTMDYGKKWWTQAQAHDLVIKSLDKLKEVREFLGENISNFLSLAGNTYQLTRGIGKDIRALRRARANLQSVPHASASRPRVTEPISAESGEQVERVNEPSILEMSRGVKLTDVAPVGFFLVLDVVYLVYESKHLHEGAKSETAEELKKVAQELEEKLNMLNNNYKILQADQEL
Source text: Trypanosoma brucei brucei is a blood stream parasite to which human, gorillas and baboon are immune due to the presence of the APOL1 protein in their HDL particles. The protein is uptaken by the parasite via the TbHpHb receptor located in its flagellar pocket and is bonded by the Hpr protein contained in the HDL particles which triggers the receptor endocytosis by the parasite.
Following endocytosis, the formed vesicle containing the HDL particle matures from early to late endosome, and subsequently to lysosome. The concomitant pH change in the lumen of the vesicle triggers the insertion of the APOL1 protein into the membrane of the late endosome/lysosome and hereby triggers lysosomal membrane premeabilisation and as a further downstream event, trypanosome lysis. Trypanosoma brucei brucei is sensitive to lysis by all three APOL1 variants (G0, G1, and G2).
The Trypanosoma brucei brucei lysis assay is a lysis assay of the parasite using recombinant APOL1 protein variant followed by a fluorescent detection method of viability by the addition of AlamarBlue reagent to the assay well, a general metabolic redox indicator (AlamarBlue assay).
Briefly, the AlamarBlue active compound, the resazurin, a blue, water soluble, non-toxic and cell permeable molecule, which can be followed by absorbance, is reduced by various metabolic pathways into resorufin, a red compound which can be followed by either absorbance or fluorescence. The assay allows the calculation of the percent viability (percent of living Trypanosomes remaining in each well) at the end of a lysis relative to the untreated condition by interpolation of fluorescent values (FLU) on a standard curve with a known amount of seeded trypanosome/well.
Trypanosoma brucei brucei (ATCC, Cat. No. PRA-382) • Lister 427 VSG 221 bloodstream form.
Thaw/Expansion Media (ATCC Medium 2834 Modified HMI-9 Medium)
Equipment • E1-Clip Tip pipette 12 channel adjustable 2-125 μL, Cat. No. 4672070BT • ThermoFisher MultiDrop 384, Cat. No. 5840300 • Multidrop • Agilent Bravo, Cat. No. G5409A • Bravo • SpectraMax M5
Trypanosoma brucei brucei Culture
Step 2, Day 4 • Centrifuge at 800×g for 5 minutes at room temperature. • Resuspend in 1 mL media. • Make a 1:25 fold dilution (10 μL/240 μL media). • Count on a hemocytometer (after adding parasites). • Let sit for 1-2 minutes for the parasites to settle. • Count should be approximately 100 viable motile parasites/16 grid or approximately 25×10^6 parasites/flask. • Passage the parasites by adding 1×10^6 parasites/T75 flask in 20 mL media. • Passage the parasites by adding 2.33×10^6 parasites/T175 flask in 46.6 mL media. • For every T75 flask should make enough for approximately 1.5×384 well assay plates. • For every T175 flask should make enough for approximately 3.8×384 well assay plates.
Step 3. Day 6 • Centrifuge at 800×g for 5 minutes. • Resuspend in 3 mL assay media (No phenol red, no FBS) per 75 starting flask. • Resuspend in 7 mL assay media (No phenol red, no FBS) per 175 flask • Make a 1:25 fold dilution. • Count by hemocytometer. • Every T75 flask set up should have approximately 75×10^6 parasites/flask (verify doubling time=8.7 hrs 1 hr). • Every T175 flask set up should have approximately 175×10^6 parasites/flask (verify doubling time=8.7 hrs±1 hr). • Require 46×10^6 parasites per 384 well plate (at 120,000 parasites per well).
Step 2, Day 2 • Centrifuge at 800×g for 5 minutes at room temperature. • Resuspend in 1 mL media. • Make a 1:25 fold dilution (10 L/240 μL media). • Let sit for 1-2 minutes for the parasites to settle. • Count should be approximately 100 viable motile parasites/16 grid or approximately 8×10^6 parasites per flask. • Passage the parasites by adding 1.25×10^6 parasites per T75 flask in 20 mL media. • For every T75 flask set up should have approximately 1.5×384 well assay plates. • For every T175 flask setup should have approximately 3.8×384 well assay plates. […]

| Compound | IC50 [nM] |
| --- | --- |
| O=C(CCc1c(-c2ccc(OC(F)F)cc2)[nH]c2c(F)cc(F)cc12)N[C@@H]1C(=O)NC[C@H]1O [Compound 102] | < 250 |
| O=C(CCc1c(-c2ccc(F)cc2)[nH]c2ccc(OCc3ccccc3)cc12)N[C@H]1CCNC1=O [Compound 54, 3-[5-benzyloxy-2-(4-fluorophenyl)-1H-indol-3-yl]-N-[(3S)-2-oxopyrrolidin-3-yl]propanamide] | 250 to 1000 |
| O=C1C[C@@H](NC(=O)CCc2c(-c3ccc(F)cc3)[nH]c3c(F)cc(F)cc23)C(=O)N1 [Compound 16] | 250 to 1000 |
| O=C(CCc1c(-c2cc(F)cc(F)c2)[nH]c2ccccc12)N[C@@H]1C(=O)NC[C@H]1O [Compound 127, 3-[2-(3,5-difluorophenyl)-1H-indol-3-yl]-N-[(3S,4R)-4-hydroxy-2-oxo-pyrrolidin-3-yl]propanamide] | 250 to 1000 |
| O=C(CCc1c(-c2cc(F)cc(F)c2)[nH]c2c(F)cc(F)cc12)N[C@@H]1C(=O)NC[C@H]1O [Compound 104] | < 250 |
| O=C(CCc1c(-c2ccc(F)c(F)c2)[nH]c2ccccc12)N[C@@H]1C(=O)NC[C@H]1O [Compound 129, 3-[2-(3,4-difluorophenyl)-1H-indol-3-yl]-N-[(3S,4R)-4-hydroxy-2-oxo-pyrrolidin-3-yl]propanamide] | < 250 |
| O=C(CCc1c(-c2ccccc2)[nH]c2cc(F)cc(F)c12)N[C@@H]1C(=O)NC[C@H]1O [Compound 85] | < 250 |
| O=C(CCc1c(-c2ccc(F)cc2)[nH]c2c(F)cccc12)N[C@H]1CCNC1=O [Compound 75] | < 250 |
| O=C1C[C@H](NC(=O)CCc2c(-c3ccc(F)cc3)[nH]c3c(F)cc(F)cc23)C(=O)N1 [Compound 5] | 250 to 1000 |
| O=C(CCc1c(-c2ccc(F)cc2)[nH]c2ccc(F)cc12)N[C@@H]1CCNC1=O [Compound 49] | 250 to 1000 |
| O=C(CCc1c(-c2ccccc2)[nH]c2cc(F)ccc12)N[C@@H]1C(=O)NC[C@H]1O [Compound 109, 3-(6-fluoro-2-phenyl-1H-indol-3-yl)-N-[(3S,4R)-4-hydroxy-2-oxo-pyrrolidin-3-yl]propanamide] | < 250 |
| CC1C[C@H](NC(=O)CCc2c(-c3ccc(F)cc3)[nH]c3c(F)cc(F)cc23)C(=O)N1 (mixture of isomers) [Compound 6] | 250 to 1000 |
| CN(C(=O)CCc1c(-c2ccc(F)cc2)[nH]c2ccc(F)cc12)C1CCNC1=O (stereo not shown) [Compound 50] | 250 to 1000 |
| O=C(CCc1c(-c2ccc(F)cc2)[nH]c2c(F)cc(Br)cc12)N[C@H]1CCNC1=O [Compound 27] | < 250 |
| O=C(CCc1c(-c2ccc(F)cc2)[nH]c2c(F)cccc12)N[C@@H]1C(=O)NC[C@H]1O [Compound 76] | < 250 |
| O=C(CCc1c(-c2ccc(F)cc2)[nH]c2ccc(C(F)(F)F)cc12)N[C@@H]1C(=O)NC[C@H]1O [Compound 108, 3-[2-(4-fluorophenyl)-5-(trifluoromethyl)-1H-indol-3-yl]-N-[(3S,4R)-4-hydroxy-2-oxo-pyrrolidin-3-yl]propanamide] | < 250 |

| Compound | IC50 [nM] |
| --- | --- |
| O=C(CCc1c(-c2ccc(F)cc2)[nH]c2ccc(F)cc12)N[C@@H]1C(=O)NC[C@H]1O [Compound 46] | < 250 |
| O=C(CCc1c(-c2ccc(OC(F)F)cc2)[nH]c2c(F)cc(F)cc12)N[C@H]1CCNC1=O [Compound 21] | < 250 |
| O=C(CCc1c(-c2ccccc2)[nH]c2c(Br)cccc12)N[C@@H]1C(=O)NC[C@H]1O [Compound 70] | < 250 |
| O=C(CCc1c(-c2ccc(F)cc2)[nH]c2c(F)cc(F)cc12)N[C@H]1CCNC1=O [Compound 3, 3-[5,7-difluoro-2-(4-fluorophenyl)-1H-indol-3-yl]-N-[(3S)-2-oxopyrrolidin-3-yl]propanamide] | < 250 |
| O=C(CCc1c(-c2cccc(F)c2)[nH]c2c(F)cc(F)cc12)N[C@@H]1C(=O)NC[C@H]1O [Compound 103] | < 250 |
| O=C(CCc1c(-c2ccc(F)cc2)[nH]c2c(Cl)cc(F)cc12)N[C@@H]1C(=O)NC[C@H]1O [Compound 36] | < 250 |
| O=C(CCc1c(-c2ccc(F)c(F)c2)[nH]c2c(F)cc(F)cc12)N[C@@H]1C(=O)NC[C@H]1O [Compound 105] | < 250 |
| O=C(CCc1c(-c2ccccc2)[nH]c2ccc(F)cc12)N[C@@H]1C(=O)NC[C@H]1O [Compound 51] | < 250 |
| O=C(CCc1c(-c2ccc(F)cc2)[nH]c2c(F)cc(F)cc12)N[C@H]1C[C@H](CO)NC1=O [Compound 8] | > 1000 |
| COc1cc(F)cc2c(CCC(=O)N[C@@H]3C(=O)NC[C@H]3O)c(-c3ccc(F)cc3)[nH]c12 [Compound 40] | < 250 |
| Cc1ccc(-c2[nH]c3ccccc3c2CCC(=O)N[C@@H]2C(=O)NC[C@H]2O)cc1F [Compound 126] | < 250 |
| Cc1ccc2[nH]c(-c3ccc(Br)cc3)c(CCC(=O)N[C@H]3CCNC3=O)c2c1 [Compound 43, 3-[2-(4-bromophenyl)-5-methyl-1H-indol-3-yl]-N-[(3S)-2-oxopyrrolidin-3-yl]propanamide] | < 250 |
| O=C(CCc1c(-c2ccc(F)cc2)[nH]c2c(F)cc(C(F)(F)F)cc12)N[C@@H]1C(=O)NC[C@H]1O [Compound 101, 3-[7-fluoro-2-(4-fluorophenyl)-5-(trifluoromethyl)-1H-indol-3-yl]-N-[(3S,4R)-4-hydroxy-2-oxo-pyrrolidin-3-yl]propanamide] | < 250 |
| Cc1c(F)c(F)cc2c(CCC(=O)N[C@@H]3C(=O)NC[C@H]3O)c(-c3ccccc3)[nH]c12 [Compound 99, 3-(5,6-difluoro-7-methyl-2-phenyl-1H-indol-3-yl)-N-[(3S,4R)-4-hydroxy-2-oxo-pyrrolidin-3-yl]propanamide] | < 250 |
| O=C(CCc1c(-c2ccc(F)cc2)[nH]c2ccccc12)N[C@@H]1C(=O)NC[C@H]1O [Compound 87, 3-[2-(4-fluorophenyl)-1H-indol-3-yl]-N-[(3S,4R)-4-hydroxy-2-oxo-pyrrolidin-3-yl]propanamide] | < 250 |
